From patent publication US20080085333A1, “Composition Comprising Extract of Anemarrhena Asphodeloides and Aralia Elata,and Use Thereof” (MEDVILL CO., LTD., priority 2004, published 2008) come the findings set out here.

Converted amounts (≈) assume the structure as drawn.

For assay [1], the system named is PGE2 production in mouse macrophage cell line Raw264.7. Kind of assay: Inhibition of LPS-induced PGE2 production in macrophages (ELISA). Format: cell-based. Particulars: Raw264.7, extract 1 hour before LPS, LPS 16 hours, read-out: IC50 for inhibition of PEG2 production. The text has this: The effect of the inventive water or organic solvent extract of Anemarrhena asphodeloides and Aralia elata on the production of PGE2 (prostaglandin E2) in mouse macrophages was examined to measure a concentration at which a 50% inhibitory effect is shown. The PGE2 is a substance synthesized by a COX-2 enzyme in macrophages permeated skin when infected with foreign substances or germs, and the degree of inflammation and the secreted amount of PGE2 are closely connected with each other. Namely, as inflammation becomes more severe, the secretion of PGE2 increases.
Meanwhile, when mouse macrophage cell line Raw264.7 (obtained from Korean Cell Line Bank) is cultured in RPMI medium while it is treated with LPS (lipopolysaccharide) for 16 hours, the production of PGE2 will increase. Thus, 1 hour before the macrophage cell line was treated with LPS, the macrophage cell line was treated with each of the water extract of Anemarrhena asphodeloides or water extract of Aralia elata prepared in Example 1, the water extract of Anemarrhena asphodeloides and Aralia elata prepared in Example 2 and the ethanol extract of Anemarrhena asphodeloides and Aralia elata prepared in Example 3, at varying concentrations of 5 mg/ml, 1 mg/ml, 500 μg/ml, 100 μg/ml, 50 μg/ml and 10 μg/ml, and then measured for the amount of PEG2 produced. […]
Background: An ELISA detects its analyte on a solid surface through an enzyme-linked reagent.

The subject of assay [2] is Propionibacterium acnes (KCTC 3314). The experiment in a line: Minimum inhibitory concentration in BHI broth, anaerobic culture, O.D. 660 nm. In kind it is cell-based. Conditions: 37° C., 48-72 hours. The method, then: To measure the antibacterial effect of the inventive extract against Propionibacterium acnes, […] of BHI (brain heart infusion) broth was inoculated with a culture of Propionibacterium acnes (KCTC 3314) at a concentration of 1% (v/v). Then, the inoculated broth was treated with each of the water extract of Anemarrhena asphodeloides or water extract of Aralia elata prepared in Example 1, the water extract of Anemarrhena asphodeloides and Aralia elata prepared in Example 2 and the ethanol extract of Anemarrhena asphodeloides and Aralia elata prepared in Example 3 at varying concentrations of 0.1%, 1%, 5%, 10% and 20%. A negative control group was treated with physiological saline. […] As positive control groups, erythromycin and triclosan, which are known to have antiacne effect, were used.

As for `CC(=O)Oc1ccccc1C(=O)O` [aspirin], in assay [1], the half-inhibitory concentration (IC50) (as a rule, the concentration at which inhibition is half-maximal) is 48 µg/mL (≈ 266 µM).

As for `Oc1cc(Cl)ccc1Oc1ccc(Cl)cc1Cl` [triclosan], in assay [2], the MIC was 0.001 ppm, v/v.

Take `CC[C@H]1OC(=O)[C@H](C)[C@@H](O[C@H]2C[C@@](C)(OC)[C@@H](O)[C@H](C)O2)[C@H](C)[C@@H](O[C@@H]2O[C@H](C)C[C@H](N(C)C)[C@H]2O)[C@](C)(O)C[C@@H](C)C(=O)[C@H](C)[C@@H](O)[C@]1(C)O` [erythromycin]: the MIC in assay [2] is given as 0.0005 ppm, v/v.
